These results are taken from ChEMBL document CHEMBL1148666, “Inhibition of protein tyrosine phosphatase 1B by diterpenoids isolated from Acanthopanax koreanum” (Bioorg Med Chem Lett, 2006).

The target of this test is T1, Tyrosine-protein phosphatase non-receptor type 1 (Homo sapiens, UniProt P18031).
T1 sequence (P18031 whole entry): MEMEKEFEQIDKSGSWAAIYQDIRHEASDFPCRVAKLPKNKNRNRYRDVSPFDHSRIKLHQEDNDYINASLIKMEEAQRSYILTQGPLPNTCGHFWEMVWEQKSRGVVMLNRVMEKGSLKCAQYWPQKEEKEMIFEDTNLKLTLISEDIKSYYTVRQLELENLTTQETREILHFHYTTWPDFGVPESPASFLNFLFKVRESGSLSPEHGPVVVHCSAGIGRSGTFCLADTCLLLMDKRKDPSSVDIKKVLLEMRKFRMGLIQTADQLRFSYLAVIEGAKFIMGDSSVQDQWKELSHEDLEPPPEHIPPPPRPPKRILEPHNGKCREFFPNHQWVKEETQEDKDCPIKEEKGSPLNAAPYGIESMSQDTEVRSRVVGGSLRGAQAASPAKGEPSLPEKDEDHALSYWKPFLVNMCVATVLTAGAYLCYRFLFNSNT
As to the kind of experiment: Inhibition of human recombinant PTP1B.

Some results are limits rather than exact numbers.

As usually defined, the IC50 is the point on the concentration scale where inhibition reaches its midpoint. On to `C[C@@]12CCC[C@@](C)(C(=O)O)C1CC[C@@]13C[C@@H](CCC12)[C@](C)(O)C3` (some centres undefined), for which the IC50 is above 30 µM.
As for `C=C[C@]1(C)C=C2C(CC1)[C@]1(C)CCC[C@@](C)(C(=O)O)C1C[C@@H]2O` (some centres undefined), the figure is above 30 µM; as for `CC(C)CC(=O)OC[C@H]1C[C@@]23CCC4[C@@](C)(CCC[C@@]4(C)C(=O)O)C2CC[C@@H]1C3` (some centres undefined), 7.1 µM; as for `C=C[C@]1(C)CC[C@@]2(O)[C@@H](C1)C(=O)CC1[C@](C)(C(=O)O)CCC[C@]12C` (some centres undefined) [ACANTHOKOREOIC ACID A], above 30 µM.
With `CCCCCCCCCCCCCCCC(=O)C1=C(O)[C@@H](CO)OC1=O`, the IC50 was determined as 4.5 µM.
As for `CC(C)CC(=O)OC[C@@]1(O)C[C@@]23CCC4[C@@](C)(CCC[C@@]4(C)C(=O)O)C2CC[C@@H]1C3` (some centres undefined), the figure is above 30 µM; as for `C=C[C@@]1(C)CC=C2C(CCC3[C@](C)(C(=O)O)CCC[C@@]23C)C1` (some centres undefined) [ACANTHOIC ACID], 23.5 µM; as for `C=C[C@@]1(C)CC=C2C(CCC3[C@](C)(CO)CCC[C@@]23C)C1` (some centres undefined) [ACANTHOL], above 30 µM.
As to `C=C1C[C@@]23CC[C@H]4[C@@](C)(CCC[C@@]4(C)C(=O)O)[C@@H]2CC[C@@H]1C3` [KAURENOIC ACID], the IC50 was found to be 20.2 µM.
